Measurements reported in US8173654B2, “Triazolopyridazine compounds” (Janssen Pharmaceutica N.V., priority 2005, dated 2012).

Assays:
[1] = test system: S114 tumors; assay: S114 tumor model; assay type: in vivo, athymic nude mice; conditions: 100 mg/kg p.o. q.d., four consecutive days, five mice
Procedure: Female athymic nude mice were inoculated subcutaneously in the left inguinal region of the thigh with 5×10^6 S114 cells in a delivery volume of 0.1 mL. Tumors were allowed to grow to for five days. Mice were dosed orally at 100 mg/kg compound in 20% HPBCD or with vehicle (20% HPBCD, control group). Dosing was continued for 4 consecutive days. On the day of study termination, tumors were immediately excised intact and weighed, with final tumor wet weight (grams) serving as a primary efficacy endpoint.
Female athymic nude mice (CD-1, nu/nu, 9-10 weeks old) were obtained from Charles River Laboratories (Wilmington, Mass.) and were maintained according to NIH standards. All mice were group housed (5 mice/cage) under clean-room conditions in sterile micro-isolator cages on a 12-hour light/dark cycle in a room maintained at 21-22° C. and 40-50% humidity. […]
The murine NIH 3T3 derived cell line S114, which has been engineered to over-express both Human Growth Factor (HGF) and the human c-Met receptor, was propagated in DMEM media (Life Technologies, Bethesda, Md.). Immediately prior to injection, cells were washed counted and resuspended in PBS. […]
Mice were dosed orally at 100 mg/kg compound in 20% HPBCD or with vehicle (20% HPBCD, control group). […] Body weight was measured at the end of the study and a loss of body weight >10% was used as an indication of lack of compound tolerability. […]

[2] = biological target: c-Met (Homo sapiens, UniProt P08581); assay: Cell based ELISA assay for HGF stimulated c-Met phosphorylation in S114 cells; set-up: expressed in transfected cells; host or cells: S114 (murine NIH 3T3 derived); conditions: read-out: c-Met Cell ELISA IC-50
c-Met, sequence (P08581 25-1390): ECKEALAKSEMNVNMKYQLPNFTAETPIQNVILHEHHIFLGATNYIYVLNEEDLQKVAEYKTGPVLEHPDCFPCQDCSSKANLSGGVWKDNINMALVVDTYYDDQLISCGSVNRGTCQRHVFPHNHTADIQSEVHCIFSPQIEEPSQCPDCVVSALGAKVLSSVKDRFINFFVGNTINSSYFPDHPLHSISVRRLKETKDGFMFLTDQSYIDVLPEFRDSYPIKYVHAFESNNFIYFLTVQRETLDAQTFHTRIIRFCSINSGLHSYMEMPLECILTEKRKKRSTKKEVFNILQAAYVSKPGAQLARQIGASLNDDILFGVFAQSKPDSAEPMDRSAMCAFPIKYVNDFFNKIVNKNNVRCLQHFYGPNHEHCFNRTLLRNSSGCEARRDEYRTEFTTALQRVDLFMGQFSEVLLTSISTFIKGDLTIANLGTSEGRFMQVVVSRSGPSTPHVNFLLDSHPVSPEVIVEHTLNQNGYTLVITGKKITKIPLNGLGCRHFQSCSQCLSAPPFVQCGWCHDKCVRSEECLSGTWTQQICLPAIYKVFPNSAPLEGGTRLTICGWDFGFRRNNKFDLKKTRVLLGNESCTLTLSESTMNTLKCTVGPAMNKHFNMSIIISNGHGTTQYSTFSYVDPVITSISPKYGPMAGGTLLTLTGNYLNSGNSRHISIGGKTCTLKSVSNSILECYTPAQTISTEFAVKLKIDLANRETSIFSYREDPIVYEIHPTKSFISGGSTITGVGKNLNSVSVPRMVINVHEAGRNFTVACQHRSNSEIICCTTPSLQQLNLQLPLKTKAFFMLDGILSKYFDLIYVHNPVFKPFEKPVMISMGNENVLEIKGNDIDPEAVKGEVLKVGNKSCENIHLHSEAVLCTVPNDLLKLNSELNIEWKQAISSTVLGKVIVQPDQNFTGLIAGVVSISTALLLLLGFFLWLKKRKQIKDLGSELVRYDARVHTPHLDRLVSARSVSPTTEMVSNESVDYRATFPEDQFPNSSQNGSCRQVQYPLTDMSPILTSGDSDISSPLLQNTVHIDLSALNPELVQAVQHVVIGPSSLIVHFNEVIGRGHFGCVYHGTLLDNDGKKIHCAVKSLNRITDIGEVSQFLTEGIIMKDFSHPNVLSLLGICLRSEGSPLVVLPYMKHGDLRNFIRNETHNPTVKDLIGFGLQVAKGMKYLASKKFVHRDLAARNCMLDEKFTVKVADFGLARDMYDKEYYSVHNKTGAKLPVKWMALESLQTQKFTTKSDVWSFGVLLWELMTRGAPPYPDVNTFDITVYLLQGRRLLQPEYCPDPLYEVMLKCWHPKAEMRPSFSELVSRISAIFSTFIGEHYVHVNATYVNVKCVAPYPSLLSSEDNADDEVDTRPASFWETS

Cn1cc(-c2ccc3nnc(C(F)(F)c4ccc5ncccc5c4)n3n2)cn1 [Example 61, 6-{Difluoro-[6-(1-methyl-1H-pyrazol-4-yl)-[1,2,4]triazolo[4,3-b]pyridazin-3-yl]-methyl}-quinoline]
mice with tumors regressed to non-palpable, non-detectable tumors by the end of the study [1]: three of the five mice | regression of S114 tumors [1]: regressed in all five mice | IC50 [2]: 2 nM
